From patent US20040253268A1, “Biological compositions and methods for treatment of uterine cancer” (priority 2003, published 2004)

How the values were obtained:
[1] = system: uterine cancer cell line CRL-1622; test: Tumor growth in 615 strain mouse model of human uterine cancer (Example 6); format: in vivo, 615 mice; conditions: day 31 after tumor inoculation; 30 days dosing; AY/NY 0.3 ml/day oral, MMC 0.8 mg/kg/day s.c.
Text: The following example illustrates the benefit of a biological composition of the invention in a 615 strain mouse model of human uterine cancer. The growth of the tumor in the mice was studied.
Murine transplantable uterine cancer type CRL-1622 closely resembles the human uterine cancer pathology. The uterine cancer cell line CRL-1622 can be ordered from the American Type Culture Collection.
(§1) The biological composition comprising 10^8 cells per ml of activated and conditioned yeast cells of the strain Saccharomyces carlsbergensis Hansen strain AS2.605 was prepared by the methods described in Section 5.1 and subsections therein.
(§2) The animals used to generate the uterine cancer cells for the experiments were female 615 mice (obtainable from the Chinese Academy of Military Medical Sciences, Beijing, China), 4 to 6 months, having an average body weight of about 20 to 22 gram. About 1.2×10^7 viable tumor cells of the uterine cancer cell line CRL-1 622 (obtainable from the Cancer Institute, Chinese Academy of Medical Sciences, Beijing, China) in about 0.2 ml culture suspension were injected subcutaneously into the animals. […]
The mice received the biological composition, untreated yeast cells, MMC or saline on the same day as the tumor cells were transplanted. […] The weight of the mice and the weight of the tumor were determined by standard techniques.

[2] = system: uterine cancer cell line CRL-1622; test: Survival in 615 strain mouse model of human uterine cancer (Example 7); format: in vivo; conditions: 2AY/2NY 0.5 ml/day oral; for Number of live animals remaining in the groups after 30 days of treatment: 30 mice per group, 2MMC 1.2 mg/kg/day s.c.
Experimental: The following example illustrates the benefit of a biological composition of the invention in a model of human uterine cancer in a 615 strain mouse. The survival time of mice after tumor injection and treatment was studied.
as §1
(§3) The animals were prepared in a similar manner as described in Section 6.1. 7.2 Experimental Design The mice injected with tumor cells were immediately divided into 4 experimental groups of ten mice per group and one control group. The four experimental groups were triplicated (i.e., using a total of 120 mice in the experimental groups). In group 2AY, the mice received 0.5 ml of the biological composition once per day. In group 2NY, the mice received 0.5 ml of the untreated yeast cells once per day. In group 2MMC, the mice were injected subcutaneously with 1.2 mg of mitomycin C (MMC) per kg body weight per day. In group 2CK1, the mice received 0.5 ml of physiological saline once per day.
(§4) The mice received the biological composition, untreated yeast cells, MMC or saline on the same day as the tumor cells were transplanted. The mice in group 2CK2 also started receiving saline on the same day as the other four groups. The biological composition, untreated yeast cells and saline were administered orally by a feeding tube and the MMC by subcutaneous injection for 30 consecutive days. The mice were observed over 6 months from the day of tumor inoculation and survival was recorded. The weight of the mice and the weight of the tumor were determined by standard techniques.

[3] = system: uterine cancer cell line HTB-114; test: Survival in kun ming mouse model of human uterine cancer (Example 9); format: in vivo; conditions: 2AY/2NY 0.5 ml/day oral; for Number of live animals remaining in the groups after 30 days of treatment: 30 mice per group, 2VCR 4.5 mg/kg/day i.v.
Experimental: The following example illustrates the benefit of a biological composition of the invention in a kun ming mouse model of human uterine cancer. The survival time of mice after tumor injection and treatment was studied.
The biological composition comprising 10^8 cells per ml of activated and conditioned yeast cells of the strain Saccharomyces cartsbergensis Hansen strain AS2.605 was prepared by the methods described in Section 5.1 and subsections therein.
The animals were prepared in a similar manner as described in Section 8.1.
as §3, with “The” for “The animals were prepared in a similar manner as described in Section 6.1. 7.2 Experimental Design The”, “2VCR,” for “2MMC,”, “intravenously” for “subcutaneously”, “4.5” for “1.2”, “[…] (VCR)” for “mitomycin C (MMC)”
as §4, with “VCR” for “MMC”, “intravenous” for “subcutaneous”

[4] = system: uterine cancer cell line HTB-114; test: Tumor growth in kun ming mouse model of human uterine cancer (Example 8); format: in vivo; conditions: day 31 after tumor inoculation; 30 days dosing; AY/NY 0.3 ml/day oral, VCR 3 mg/kg/day i.v.
Text: The following example illustrates the benefit of a biological composition of the invention in a kun ming mouse model of human uterine cancer. The growth of the tumor in the mice was studied.
Murine transplantable uterine cancer type HTB-114 closely resembles the human uterine cancer pathology. The uterine cancer cell line HTB-114 can be ordered from the American Type Culture Collection.
as §1
as §2, with “kun ming mouse” for “615 mice”, “5” for “4”, “HTB-114” for “CRL-1 622”
The mice received the biological composition, untreated yeast cells, VCR or saline on the same day as the tumor cells were transplanted. […] The weight of the mice and the weight of the tumor were determined by standard techniques.

[5] = 0 month after cessation of treatment
[6] = 1 month after cessation of treatment
[7] = 2 months after cessation of treatment
[8] = 3 months after cessation of treatment
[9] = 4 months after cessation of treatment
[10] = 5 months after cessation of treatment
[11] = 6 months after cessation of treatment
[12] = surviving mice after 6 months observation, 2MMC 1.2 mg/kg/day s.c. for 30 days
[13] = surviving mice after 6 months observation, 2VCR 4.5 mg/kg/day i.v. for 30 days

For `CO[C@@]12[C@H](COC(N)=O)C3=C(C(=O)C(C)=C(N)C3=O)N1C[C@@H]1N[C@@H]12` [MMC, mitomycin C], which “mean weight of mice and standard deviation” value [1] is on record?
The value was 18.3 ± 3.1 g.

What about the “mean weight of tumor nodules and standard deviation” value [1] of the same compound?
Its value is 3.56 ± 2.32 mg.

What about the “Number of live animals remaining in the groups after 30 days of treatment” value (from here on “Number of live animals remaining”) [2, 5] of the same compound?
Its value is 30.

What about the “Number of live animals remaining” value [2, 6] of the same compound?
Its value is 28.

What about the survival time ([2]; 2MMC 1.2 mg/kg/day s.c. for 30 days, observed over 6 months) of the same compound?
The survival time was “all died during the experiment”.

What about the “Number of live animals remaining” value [2, 7] of the same compound?
The value was 26.

What about the “Number of live animals remaining” value [2, 8] of the same compound?
The value was 18.

What about the “Number of live animals remaining” value [2, 9] of the same compound?
Its value is 7.

And the “Number of live animals remaining” value [2, 10]?
The value was 0.

And the “Number of live animals remaining” value [2, 11]?
The value was 0.

What about the “mean weight of mice and standard deviation” value [2, 12] of the same compound?
Its value is “all animals dead”.

And the “mean weight of tumor nodules and standard deviation” value [2, 12]?
The value was “all animals dead”.

Which “Number of live animals remaining” value [3, 5] does the source give for `CC[C@]1(O)C[C@@H]2CN(CCc3c([nH]c4ccccc34)[C@@](C(=O)OC)(c3cc4c(cc3OC)N(C)[C@H]3[C@@](O)(C(=O)OC)[C@H](OC(C)=O)[C@]5(CC)C=CCN6CC[C@]43[C@@H]65)C2)C1` [VCR, vinblastine] here?
The value was 30.

And the “Number of live animals remaining” value [3, 6]?
Its value is 28.

And the survival time ([3]; 2VCR 4.5 mg/kg/day i.v. for 30 days, observed over 6 months)?
Its survival time is “all died during the experiment”.

What about the “Number of live animals remaining” value [3, 7] of the same compound?
Its value is 19.

And the “Number of live animals remaining” value [3, 8]?
The value was 11.

What about the “Number of live animals remaining” value [3, 9] of the same compound?
Its value is 3.

What about the “Number of live animals remaining” value [3, 10] of the same compound?
The value was 0.

And the “Number of live animals remaining” value [3, 11]?
Its value is 0.

What about the “mean weight of mice and standard deviation” value [3, 13] of the same compound?
Its value is “all animals dead”.

What about the “mean weight of tumor nodules and standard deviation” value [3, 13] of the same compound?
Its value is “all animals dead”.

What about the “mean weight of mice and standard deviation” value [4] of the same compound?
The value was 18.3 ± 3.3 g.

What about the “mean weight of tumor nodules and standard deviation” value [4] of the same compound?
The value was 4.36 ± 2.45 g.
